# Source: patent publication US4937263A, “Antihypercholesterolemic compounds” (Merck & Co., Inc., priority 1989, dated 1990)
# System: HMG-CoA reductase
# Test: HMG-CoA Reductase Inhibition Assay (in vitro, intrinsic inhibition)
# Type: biochemical
# Conditions: IC50 of test compound compared with compactin determined simultaneously, compactin assigned 100; tested as sodium salt of dihydroxy acid form; solubilized rat liver microsomal enzyme
# Description: The intrinsic HMG-CoA reductase inhibition activity of the claimed compounds is measured in the in vitro protocol published in J. Med. Chem., 28, p. 347-358 (1985) and described below:
# Male Holtzman Sprague-Dawley rats (225-250 g) were kept on reversed lighting and fed Purina rat chow containing 3% cholestyramine for 7 days preceding their sacrifice by CO2 asphyxiation. Livers were removed 6 hours into the dark cycle and used immediately to prepare microsomes. HMG-CoA reductase was solubilized from the freshly prepared microsome by the method of Heller and Shrewsbury [J. Biol. Chem., 1976, 251, 3815] and purified through the second ammonium sulfate precipitation step as described by Kleinsek et al. [Proc. Natl. Acad. Sci. U.S.A., 1977, 74, 1431]. The enzyme preparation was tested for HMG-CoA reductase potency and diluted with 100 mM phosphate buffer (pH 7.2) so that 100 μl of the enzyme solution, when added to the assay control, gave a value of 50,000-60,000 dpm. The enzyme preparation was stored at -80° C.
# The assay is essentially the procedure of Shefer et al. [J. Lipid Res., 1972, 13, 402]. The complete assay medium contained the following in a total volume of 0.8 ml: phosphate buffer, pH 7.2, 100 mM; MgCl2, 3 mM; NADP, 3 mM; glucose 6-phosphate, 10 mM; glucose-6-phosphate dehydrogenase, 3 enzyme units; reduced glutathione, 50 mM; HMG-CoA (glutaryl-3-^14 C., New England Nuclear), 0.2 mM (0.1 μCi); and partially purified enzyme stock solution, 100 μL.
# Test compounds or compactin (after first being converted to the sodium salt of their dihydroxy acid form in situ by addition of IN NaOH (1 equivalent) were added to the assay system in 10 μL volumes at multiconcentration levels. After a 40 minute incubation at 37° C. with shaking and, exposure to air, the reaction was stopped by the addition of 0.4 mL of 8 N HCl. After an additional 30-minute incubation period at 37° C. to ensure the complete lactonization of mevalonic acid to mevalonolactone, 0.2 ml of the mixture was added to an 0.5×5.0 cm column containing 100-200 mesh Bio-Rex 5,chloride form (Bio-Rad), wetted with distilled water, as described by Alberts et al [J. Proc. Natl. Acad. Sci. U.S.A., 1980, 77, 3967]. The unreacted [^14 C]HMG-CoA was absorbed on the resin and the [^14 C]mevalonolactone was eluted with distilled water (2×1 ml) directly into 7-ml scintillation vials. Five milliliters of Aquasol-2 (New England Nuclear) was added to each vial, and radioactivity was measured in a Packard Tri Carb Prias scintillation counter. IC50 values were determined by plotting percentage inhibition against test compound concentration and fitting a straight line to the resulting data by using the least squares method. For estimation of relative inhibitory potencies, compactin was assigned a value of 100 and the IC50 value of the test compound was compared with that of compactin determined simultaneously.
row,Relative Potency,Structure (SMILES)
1,36,C[C@H]1C=C2C=C[C@H](C)[C@H](CC[C@@H](O)C[C@@H](O)CC(=O)O)[C@H]2[C@@H](OC(=O)C(C)(C)c2ccc(CO)cc2)C1
2,217,C[C@H]1C=C2C=C[C@H](C)[C@H](CC[C@@H](O)C[C@@H](O)CC(=O)O)[C@H]2[C@@H](OC(=O)C(C)(C)c2ccc(O)c(F)c2)C1
3,333,C[C@H]1C=C2C=C[C@H](C)[C@H](CC[C@@H](O)C[C@@H](O)CC(=O)O)[C@H]2[C@@H](OC(=O)C(C)(C)Cc2cc(O)cc(O)c2)C1
4,280,C[C@H]1C=C2C=C[C@H](C)[C@H](CC[C@@H](O)C[C@@H](O)CC(=O)O)[C@H]2[C@@H](OC(=O)C(C)(C)Cc2ccc(O)cc2)C1
5,197,C[C@H]1C=C2C=C[C@H](C)[C@H](CC[C@@H](O)C[C@@H](O)CC(=O)O)[C@H]2[C@@H](OC(=O)C(C)(C)c2cccc(O)c2)C1
6,217,C[C@H]1C=C2C=C[C@H](C)[C@H](CC[C@@H](O)C[C@@H](O)CC(=O)O)[C@H]2[C@@H](OC(=O)C(C)(C)c2ccc(O)cc2)C1
7,144,COc1ccc(C(C)(C)C(=O)O[C@H]2C[C@@H](C)C=C3C=C[C@H](C)[C@H](CC[C@@H](O)C[C@@H](O)CC(=O)O)[C@H]32)cc1
8,100,C[C@H]1C=C2C=C[C@H](C)[C@H](CC[C@@H](O)C[C@@H](O)CC(=O)O)[C@H]2[C@@H](OC(=O)C(C)(C)CCc2ccccc2)C1
9,173,C[C@H]1C=C2C=C[C@H](C)[C@H](CC[C@@H](O)C[C@@H](O)CC(=O)O)[C@H]2[C@@H](OC(=O)C(C)(C)Cc2ccccc2)C1
10,47,CCOc1ccc(C(C)(C)C(=O)O[C@H]2C[C@@H](C)C=C3C=C[C@H](C)[C@H](CC[C@@H](O)C[C@@H](O)CC(=O)O)[C@H]32)cc1
11,88,C[C@H]1C=C2C=C[C@H](C)[C@H](CC[C@@H](O)C[C@@H](O)CC(=O)O)[C@H]2[C@@H](OC(=O)C(C)(C)c2ccccc2)C1
